Measurements reported in a compilation of properties of binary mixtures (doi:10.1016/j.molliq.2020.114573).

Assay: xn = mol fraction of the nth substance listed
Details: 101.3 kPa

CCCC[n+]1ccn(C)c1.O=S(=O)([N-]S(=O)(=O)C(F)(F)F)C(F)(F)F + CC1COC(=O)O1
x1 = 1
Details	viscosity [mPa·s]
293.15 K	63.1
298.15 K	50.5
303.15 K	41.13
313.15 K	28.4
318.15 K	24.03
323.15 K	20.54
333.15 K	15.91
338.15 K	14.02
343.15 K	12.37
348.15 K	10.91

CC1COC(=O)O1 (centres undefined) + CCCC[n+]1ccn(C)c1.O=S(=O)([N-]S(=O)(=O)C(F)(F)F)C(F)(F)F
viscosity [mPa·s]
Details	x2 = 0	x2 = 0.1013	x2 = 0.1557	x2 = 0.3071	x2 = 0.4128	x2 = 0.5045	x2 = 0.6	x2 = 0.7	x2 = 0.8079	x2 = 0.8776
288.15 K	3.063	5.14	6.77	12.5	18.43	24.64	32.48	43.74	55.8	64.4
293.15 K	2.746	4.535	5.9	10.63	15.39	20.32	–	35.25	44.52	–
298.15 K	2.476	–	5.19	9.12	13.04	–	21.83	–	36.14	41.16
303.15 K	2.246	3.605	4.596	7.92	11.15	–	18.29	24.03	–	–
308.15 K	2.049	–	–	6.95	–	–	15.52	20.24	24.9	28.07
313.15 K	1.879	2.945	3.69	6.14	8.42	–	13.31	17.63	21.07	–
318.15 K	1.73	2.683	3.339	5.47	7.42	9.33	11.54	–	18.27	20.13
323.15 K	1.6	2.455	3.038	4.91	–	8.21	10.09	–	16.06	17.66
328.15 K	1.486	2.258	2.778	4.422	5.88	7.29	8.9	11.5	13.99	15.53
333.15 K	1.385	2.085	2.552	4.014	5.3	6.52	7.91	10.04	12.18	–
338.15 K	1.294	1.931	2.354	–	4.79	5.86	7.07	8.82	10.66	11.9
343.15 K	1.213	1.796	2.18	3.353	4.359	5.3	6.36	7.8	9.39	10.46
348.15 K	–	1.676	–	3.085	3.984	4.82	5.76	6.96	8.33	9.23

CCCCn1cc[n+](C)c1C.O=S(=O)([N-]S(=O)(=O)C(F)(F)F)C(F)(F)F + CC1COC(=O)O1
viscosity [mPa·s]
Details	x1 = 0.0902	x1 = 0.193	x1 = 0.2934	x1 = 0.4039	x1 = 0.4996	x1 = 0.6034	x1 = 0.6989	x1 = 0.8107	x1 = 0.8987	x1 = 1
288.15 K	5.24	9.07	14.94	24.89	37.46	54.7	–	104.9	137	178.8
293.15 K	–	7.79	12.54	20.44	30.16	–	59.4	80.2	103.2	132.9
298.15 K	4.073	6.76	10.65	–	24.69	34.79	47.12	62.7	79.6	101.1
303.15 K	3.637	–	9.15	14.34	–	28.47	38.01	–	62.6	–
308.15 K	3.272	–	7.95	12.21	17.68	23.64	31.16	–	50.2	62.2
313.15 K	–	4.661	6.97	–	15.21	19.88	25.91	33.28	40.89	–
318.15 K	2.693	–	–	9.16	–	17.36	21.81	–	33.77	–
323.15 K	2.463	3.77	5.49	8.04	11.16	15.04	18.72	23.39	28.28	34.04
328.15 K	–	3.421	4.92	7.12	9.65	12.98	16.46	19.94	23.94	28.58
333.15 K	2.088	3.121	4.439	6.34	8.42	11.22	14.32	–	20.47	–
338.15 K	1.933	2.86	–	5.69	–	9.78	12.45	15.42	17.95	20.79
343.15 K	1.796	2.633	3.671	5.13	–	–	10.85	13.47	15.87	18.12
348.15 K	1.675	2.433	3.363	4.658	5.82	7.58	9.51	11.82	13.95	16.01
